Measurements published in the kinase profiling compilation of Christmann-Franck et al. (2016).
“And” between values parts separate entries of the source, which are not always exact repeats. Equal values may be shown once.

Assays:
Test in all cases: KINOMEscan competition binding
Settings in all cases: compound 10.0 µM
EGFR (human) = EGFR (human) (UniProt P00533)
ACVRL1 (human) = ACVRL1 (human) (UniProt P37023)
RIPK1 (human) = RIPK1 (human) (UniProt Q13546)
MAP2K1 (human) = MAP2K1 (human) (UniProt Q02750)
MAPK12 (human) = MAPK12 (human) (UniProt P53778)
PRKX (human) = PRKX (human) (UniProt P51817)
ALK (human) = ALK (human) (UniProt Q9UM73)
[1] = test system: EGFR (human), P00533 [A750P; 747-749 del]
PKMYT1 (human) = PKMYT1 (human) (UniProt Q99640)
TXK (human) = TXK (human) (UniProt P42681)
EPHB4 (human) = EPHB4 (human) (UniProt P54760)
[2] = test system: FGFR3 (human), P22607 [G697C]
ROCK2 (human) = ROCK2 (human) (UniProt O75116)
MARK4 (human) = MARK4 (human) (UniProt Q96L34)
IKBKE (human) = IKBKE (human) (UniProt Q14164)
LIMK1 (human) = LIMK1 (human) (UniProt P53667)
PHKG1 (human) = PHKG1 (human) (UniProt Q16816)
CDK11B (human) = CDK11B (human) (UniProt P21127)
MST4 (human) = MST4 (human) (UniProt Q9P289)
[3] = test system: ABL1 (human), P00519 [F317L]
LIMK2 (human) = LIMK2 (human) (UniProt P53671)
EIF2AK2 (human) = EIF2AK2 (human) (UniProt P19525)
TYRO3 (human) = TYRO3 (human) (UniProt Q06418)
ITK (human) = ITK (human) (UniProt Q08881)
MAPKAPK5 (human) = MAPKAPK5 (human) (UniProt Q8IW41)
MARK2 (human) = MARK2 (human) (UniProt Q7KZI7)
CDK3 (human) = CDK3 (human) (UniProt Q00526)
PRKACA (human) = PRKACA (human) (UniProt P17612)
LCK (human) = LCK (human) (UniProt P06239)
[4] = test system: ABL1 (human), P00519 [Y253F]
STK10 (human) = STK10 (human) (UniProt O94804)
RPS6KA5 KD1 (human) = RPS6KA5 KD1 (human) (UniProt O75582)
FGFR4 (human) = FGFR4 (human) (UniProt P22455)
MAP4K3 (human) = MAP4K3 (human) (UniProt Q8IVH8)
[5] = test system: RET (human), P07949 [M918T]
AURKA (human) = AURKA (human) (UniProt O14965)
PIK3C2B (human) = PIK3C2B (human) (UniProt O00750)
CAMK2D (human) = CAMK2D (human) (UniProt Q13557)
NEK6 (human) = NEK6 (human) (UniProt Q9HC98)
PDGFRA (human) = PDGFRA (human) (UniProt P16234)
INSR (human) = INSR (human) (UniProt P06213)
PKN1 (human) = PKN1 (human) (UniProt Q16512)

Sequence of PDGFRA (human) (P16234 whole entry, looked up): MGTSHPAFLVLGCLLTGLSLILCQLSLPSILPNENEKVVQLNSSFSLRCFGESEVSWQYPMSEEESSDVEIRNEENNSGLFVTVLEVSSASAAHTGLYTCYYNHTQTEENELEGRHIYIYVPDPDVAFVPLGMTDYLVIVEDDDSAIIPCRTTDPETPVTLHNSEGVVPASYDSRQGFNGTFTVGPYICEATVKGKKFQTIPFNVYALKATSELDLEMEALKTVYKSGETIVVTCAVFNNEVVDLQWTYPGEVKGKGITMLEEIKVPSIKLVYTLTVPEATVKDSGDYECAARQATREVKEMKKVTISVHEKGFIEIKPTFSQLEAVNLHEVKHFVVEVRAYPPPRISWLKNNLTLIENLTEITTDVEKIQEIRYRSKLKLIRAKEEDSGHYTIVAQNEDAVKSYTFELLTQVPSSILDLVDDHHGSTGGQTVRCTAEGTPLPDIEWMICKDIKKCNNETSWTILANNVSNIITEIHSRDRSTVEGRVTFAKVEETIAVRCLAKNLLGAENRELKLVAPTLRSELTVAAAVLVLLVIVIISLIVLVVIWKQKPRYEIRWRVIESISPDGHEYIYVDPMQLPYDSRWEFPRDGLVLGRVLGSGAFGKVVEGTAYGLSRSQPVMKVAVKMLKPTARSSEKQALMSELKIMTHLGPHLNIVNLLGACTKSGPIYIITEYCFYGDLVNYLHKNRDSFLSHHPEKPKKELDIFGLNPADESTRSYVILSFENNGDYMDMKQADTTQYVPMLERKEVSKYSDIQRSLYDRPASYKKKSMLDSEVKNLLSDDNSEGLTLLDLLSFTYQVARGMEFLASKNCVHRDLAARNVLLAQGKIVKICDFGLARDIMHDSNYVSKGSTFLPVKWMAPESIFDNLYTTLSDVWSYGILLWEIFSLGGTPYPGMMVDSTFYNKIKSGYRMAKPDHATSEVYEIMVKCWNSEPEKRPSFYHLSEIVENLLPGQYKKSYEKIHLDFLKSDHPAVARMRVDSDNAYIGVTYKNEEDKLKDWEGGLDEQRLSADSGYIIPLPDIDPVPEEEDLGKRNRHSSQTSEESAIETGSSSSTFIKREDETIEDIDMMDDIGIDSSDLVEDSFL
Sequence of TXK (human) (P42681 whole entry, looked up): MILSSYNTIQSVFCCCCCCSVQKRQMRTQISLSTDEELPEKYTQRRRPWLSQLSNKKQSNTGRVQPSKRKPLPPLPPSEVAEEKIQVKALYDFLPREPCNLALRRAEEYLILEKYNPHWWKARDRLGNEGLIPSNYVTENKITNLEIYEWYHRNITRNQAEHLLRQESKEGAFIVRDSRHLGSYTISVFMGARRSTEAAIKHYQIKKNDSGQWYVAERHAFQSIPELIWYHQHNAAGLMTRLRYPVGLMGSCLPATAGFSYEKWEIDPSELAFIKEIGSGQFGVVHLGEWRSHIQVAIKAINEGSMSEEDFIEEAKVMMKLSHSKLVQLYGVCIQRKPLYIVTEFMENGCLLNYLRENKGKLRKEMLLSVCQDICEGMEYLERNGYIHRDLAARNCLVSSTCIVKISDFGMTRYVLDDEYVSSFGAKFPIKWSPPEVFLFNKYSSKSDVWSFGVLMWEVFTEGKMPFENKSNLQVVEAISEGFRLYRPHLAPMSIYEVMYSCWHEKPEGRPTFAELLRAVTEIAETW
Sequence of MARK2 (human) (Q7KZI7 whole entry, looked up): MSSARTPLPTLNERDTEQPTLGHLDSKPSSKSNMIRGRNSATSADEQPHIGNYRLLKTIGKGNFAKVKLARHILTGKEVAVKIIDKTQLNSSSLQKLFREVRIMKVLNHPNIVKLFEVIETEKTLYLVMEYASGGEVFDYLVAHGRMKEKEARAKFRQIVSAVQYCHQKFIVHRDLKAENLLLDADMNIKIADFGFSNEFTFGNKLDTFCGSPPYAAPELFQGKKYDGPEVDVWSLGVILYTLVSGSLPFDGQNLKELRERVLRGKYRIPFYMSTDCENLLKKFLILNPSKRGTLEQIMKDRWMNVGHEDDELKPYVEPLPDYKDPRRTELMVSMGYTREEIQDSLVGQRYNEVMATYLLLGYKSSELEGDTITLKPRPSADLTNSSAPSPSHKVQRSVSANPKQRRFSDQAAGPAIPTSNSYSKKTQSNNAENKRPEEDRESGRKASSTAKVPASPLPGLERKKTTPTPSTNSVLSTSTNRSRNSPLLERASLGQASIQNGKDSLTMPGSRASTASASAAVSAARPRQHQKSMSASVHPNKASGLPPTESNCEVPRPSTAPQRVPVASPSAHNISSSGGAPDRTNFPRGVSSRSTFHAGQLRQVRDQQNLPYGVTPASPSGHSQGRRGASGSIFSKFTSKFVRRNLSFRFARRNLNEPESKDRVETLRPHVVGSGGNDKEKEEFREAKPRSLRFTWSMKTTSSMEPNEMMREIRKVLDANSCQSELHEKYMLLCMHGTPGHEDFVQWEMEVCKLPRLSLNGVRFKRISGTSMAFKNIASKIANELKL
Sequence of PRKX (human) (P51817 whole entry, looked up): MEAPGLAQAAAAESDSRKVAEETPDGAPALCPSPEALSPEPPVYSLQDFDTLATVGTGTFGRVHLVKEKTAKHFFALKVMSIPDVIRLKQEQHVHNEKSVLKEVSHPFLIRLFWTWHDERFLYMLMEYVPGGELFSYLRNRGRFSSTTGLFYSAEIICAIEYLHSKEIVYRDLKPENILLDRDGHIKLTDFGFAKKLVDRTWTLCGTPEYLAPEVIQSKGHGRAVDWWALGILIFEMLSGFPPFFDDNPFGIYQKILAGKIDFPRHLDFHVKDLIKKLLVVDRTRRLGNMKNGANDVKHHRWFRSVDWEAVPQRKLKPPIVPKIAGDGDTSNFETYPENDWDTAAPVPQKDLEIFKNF
Sequence of ALK (human) (Q9UM73 whole entry, looked up): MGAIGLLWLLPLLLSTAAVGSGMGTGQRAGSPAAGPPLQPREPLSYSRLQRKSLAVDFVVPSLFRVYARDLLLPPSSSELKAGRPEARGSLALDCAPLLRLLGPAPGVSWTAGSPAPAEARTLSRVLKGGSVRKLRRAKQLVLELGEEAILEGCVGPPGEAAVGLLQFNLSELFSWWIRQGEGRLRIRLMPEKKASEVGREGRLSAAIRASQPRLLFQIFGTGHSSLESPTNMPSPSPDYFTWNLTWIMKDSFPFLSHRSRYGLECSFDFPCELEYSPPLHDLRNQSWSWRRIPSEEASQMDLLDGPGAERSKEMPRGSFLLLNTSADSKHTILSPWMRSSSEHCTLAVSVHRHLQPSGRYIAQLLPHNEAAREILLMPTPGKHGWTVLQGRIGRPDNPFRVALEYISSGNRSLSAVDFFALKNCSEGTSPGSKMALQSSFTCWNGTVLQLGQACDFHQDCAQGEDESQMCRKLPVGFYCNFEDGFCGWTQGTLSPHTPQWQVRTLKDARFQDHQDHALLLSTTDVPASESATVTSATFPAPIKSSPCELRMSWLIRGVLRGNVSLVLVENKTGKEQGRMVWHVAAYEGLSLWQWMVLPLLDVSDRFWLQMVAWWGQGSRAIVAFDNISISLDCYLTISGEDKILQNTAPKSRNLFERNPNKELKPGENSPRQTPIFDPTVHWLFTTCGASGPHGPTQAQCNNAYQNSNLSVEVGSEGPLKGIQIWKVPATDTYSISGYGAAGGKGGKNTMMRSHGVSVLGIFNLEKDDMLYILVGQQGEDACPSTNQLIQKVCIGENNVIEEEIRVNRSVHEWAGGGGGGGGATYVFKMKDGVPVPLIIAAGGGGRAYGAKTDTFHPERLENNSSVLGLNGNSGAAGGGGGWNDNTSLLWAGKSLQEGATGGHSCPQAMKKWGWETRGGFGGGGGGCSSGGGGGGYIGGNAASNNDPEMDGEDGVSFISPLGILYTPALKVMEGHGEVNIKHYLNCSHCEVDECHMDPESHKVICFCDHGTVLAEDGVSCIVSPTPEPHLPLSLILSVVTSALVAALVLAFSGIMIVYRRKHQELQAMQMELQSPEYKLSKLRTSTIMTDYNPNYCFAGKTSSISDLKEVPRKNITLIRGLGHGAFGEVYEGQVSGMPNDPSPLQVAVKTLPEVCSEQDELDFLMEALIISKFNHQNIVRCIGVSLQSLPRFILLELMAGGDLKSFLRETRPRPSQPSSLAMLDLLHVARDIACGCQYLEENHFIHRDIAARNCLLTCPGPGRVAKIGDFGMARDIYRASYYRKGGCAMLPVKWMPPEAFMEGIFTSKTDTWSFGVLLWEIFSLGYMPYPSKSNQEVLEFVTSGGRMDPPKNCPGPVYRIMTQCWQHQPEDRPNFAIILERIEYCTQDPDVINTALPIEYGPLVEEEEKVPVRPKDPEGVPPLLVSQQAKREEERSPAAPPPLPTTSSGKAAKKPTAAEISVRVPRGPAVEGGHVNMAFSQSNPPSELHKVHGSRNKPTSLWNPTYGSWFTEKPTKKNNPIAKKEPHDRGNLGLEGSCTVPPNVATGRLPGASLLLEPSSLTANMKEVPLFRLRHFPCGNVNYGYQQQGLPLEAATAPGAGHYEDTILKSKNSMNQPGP
Sequence of EIF2AK2 (human) (P19525 whole entry, looked up): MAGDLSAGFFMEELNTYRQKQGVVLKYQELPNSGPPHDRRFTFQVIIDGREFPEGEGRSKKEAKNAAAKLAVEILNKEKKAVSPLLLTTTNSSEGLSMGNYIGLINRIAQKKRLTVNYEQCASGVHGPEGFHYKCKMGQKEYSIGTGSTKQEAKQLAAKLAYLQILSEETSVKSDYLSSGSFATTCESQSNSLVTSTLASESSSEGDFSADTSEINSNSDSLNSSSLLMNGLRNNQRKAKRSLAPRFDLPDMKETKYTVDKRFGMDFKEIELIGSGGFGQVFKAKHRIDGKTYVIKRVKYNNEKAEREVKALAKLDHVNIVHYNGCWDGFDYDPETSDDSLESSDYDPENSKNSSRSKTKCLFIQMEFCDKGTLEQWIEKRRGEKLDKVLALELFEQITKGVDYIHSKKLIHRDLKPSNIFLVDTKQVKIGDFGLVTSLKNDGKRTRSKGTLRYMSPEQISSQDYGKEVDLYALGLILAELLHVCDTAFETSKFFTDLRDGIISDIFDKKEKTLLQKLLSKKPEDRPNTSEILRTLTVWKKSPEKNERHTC

In the case of `COc1cc(N2CCC(O)CC2)ccc1Nc1ncc2c(n1)N1CCc3cccc(c31)C(=O)N2C`, the kinase still bound, per cent of control (EGFR (human)) is reported as 59% and 83%, the kinase still bound, per cent of control (ACVRL1 (human)) is reported as 100% and the kinase still bound, per cent of control (RIPK1 (human)) is reported as 100%. The kinase still bound, per cent of control (MAP2K1 (human)) was 100%, the kinase still bound, per cent of control (MAPK12 (human)) was 67% and the kinase still bound, per cent of control (PRKX (human)) was 91%. The kinase still bound, per cent of control (ALK (human)) was 36%, the kinase still bound, per cent of control [1] was 84% and the kinase still bound, per cent of control (PKMYT1 (human)) was 69%. It also gave a kinase still bound, per cent of control (TXK (human)) of 100%, a kinase still bound, per cent of control (EPHB4 (human)) of 100% and a kinase still bound, per cent of control [2] of 97%. The kinase still bound, per cent of control (ROCK2 (human)) was 86%, the kinase still bound, per cent of control (MARK4 (human)) was 86% and the kinase still bound, per cent of control (IKBKE (human)) was 92%. It also gave a kinase still bound, per cent of control (LIMK1 (human)) of 96%, a kinase still bound, per cent of control (PHKG1 (human)) of 89% and a kinase still bound, per cent of control (CDK11B (human)) of 100%. For the same molecule, the kinase still bound, per cent of control (MST4 (human)) was 99%, the kinase still bound, per cent of control [3] was 63% and the kinase still bound, per cent of control (LIMK2 (human)) was 100%. For the same molecule, the kinase still bound, per cent of control (EIF2AK2 (human)) was 48%, the kinase still bound, per cent of control (TYRO3 (human)) was 100% and the kinase still bound, per cent of control (ITK (human)) was 90%. It also gave a kinase still bound, per cent of control (MAPKAPK5 (human)) of 95%, a kinase still bound, per cent of control (MARK2 (human)) of 97% and a kinase still bound, per cent of control (CDK3 (human)) of 97%. For the same molecule, the kinase still bound, per cent of control (PRKACA (human)) was 100%, the kinase still bound, per cent of control (LCK (human)) was 100% and the kinase still bound, per cent of control [4] was 100%. It also gave a kinase still bound, per cent of control (STK10 (human)) of 100%, a kinase still bound, per cent of control (RPS6KA5 KD1 (human)) of 59% and a kinase still bound, per cent of control (FGFR4 (human)) of 56%. For the same molecule, the kinase still bound, per cent of control (MAP4K3 (human)) was 66%, the kinase still bound, per cent of control [5] was 100% and the kinase still bound, per cent of control (AURKA (human)) was 23%. For the same molecule, the kinase still bound, per cent of control (PIK3C2B (human)) was 100%, the kinase still bound, per cent of control (CAMK2D (human)) was 65% and the kinase still bound, per cent of control (NEK6 (human)) was 30%. For the same molecule, the kinase still bound, per cent of control (PDGFRA (human)) was 98%, the kinase still bound, per cent of control (INSR (human)) was 53% and the kinase still bound, per cent of control (PKN1 (human)) was 100%.
`O=C1NC(=O)/C(=C/c2c[nH]c(=O)c(-c3ccc(N4CCNCC4)nc3)c2)S1` was tested, and the kinase still bound, per cent of control (EGFR (human)) was 73% and 89%, the kinase still bound, per cent of control (ACVRL1 (human)) was 100% and the kinase still bound, per cent of control (RIPK1 (human)) was 82%. The kinase still bound, per cent of control (MAP2K1 (human)) was 55%, the kinase still bound, per cent of control (MAPK12 (human)) was 60% and the kinase still bound, per cent of control (PRKX (human)) was 100%. The kinase still bound, per cent of control (ALK (human)) was 54%, the kinase still bound, per cent of control [1] was 56% and the kinase still bound, per cent of control (PKMYT1 (human)) was 100%. For the same molecule, the kinase still bound, per cent of control (TXK (human)) was 80%, the kinase still bound, per cent of control (EPHB4 (human)) was 100% and the kinase still bound, per cent of control [2] was 100%. For the same molecule, the kinase still bound, per cent of control (ROCK2 (human)) was 56%, the kinase still bound, per cent of control (MARK4 (human)) was 100% and the kinase still bound, per cent of control (IKBKE (human)) was 62%. It also gave a kinase still bound, per cent of control (LIMK1 (human)) of 94%, a kinase still bound, per cent of control (PHKG1 (human)) of 29% and a kinase still bound, per cent of control (CDK11B (human)) of 100%. It also gave a kinase still bound, per cent of control (MST4 (human)) of 80%, a kinase still bound, per cent of control [3] of 66% and a kinase still bound, per cent of control (LIMK2 (human)) of 82%. It also gave a kinase still bound, per cent of control (EIF2AK2 (human)) of 38%, a kinase still bound, per cent of control (TYRO3 (human)) of 100% and a kinase still bound, per cent of control (ITK (human)) of 89%. For the same molecule, the kinase still bound, per cent of control (MAPKAPK5 (human)) was 84%, the kinase still bound, per cent of control (MARK2 (human)) was 60% and the kinase still bound, per cent of control (CDK3 (human)) was 100%. The kinase still bound, per cent of control (PRKACA (human)) was 100%, the kinase still bound, per cent of control (LCK (human)) was 100% and the kinase still bound, per cent of control [4] was 95%. The kinase still bound, per cent of control (STK10 (human)) was 33%, the kinase still bound, per cent of control (RPS6KA5 KD1 (human)) was 100% and the kinase still bound, per cent of control (FGFR4 (human)) was 93%. The kinase still bound, per cent of control (MAP4K3 (human)) was 53%, the kinase still bound, per cent of control [5] was 46% and the kinase still bound, per cent of control (AURKA (human)) was 100%. It also gave a kinase still bound, per cent of control (PIK3C2B (human)) of 90%, a kinase still bound, per cent of control (CAMK2D (human)) of 59% and a kinase still bound, per cent of control (NEK6 (human)) of 100%. For the same molecule, the kinase still bound, per cent of control (PDGFRA (human)) was 99%, the kinase still bound, per cent of control (INSR (human)) was 54% and the kinase still bound, per cent of control (PKN1 (human)) was 28%.
